Experimental data published in patent US20240016153A1, “WHEAT SEED PRODUCTION” (PIONEER HI-BRED INTERNATIONAL, INC., priority 2022, published 2024).

Key:
[1] = test system: Hard Red Winter (HRW) wheat varieties or wheat inbred lines; experiment: field and greenhouse experiments: effect of GA3 on plant height, heading, flowering and yield in GA sensitive and insensitive wheat genotypes; assay type: in vivo
Description: A series of field and greenhouse experiments were conducted to understand the effect of GA3 on plant height, pollen dispersal and seed set in GA sensitive and insensitive wheat genotypes. Eight proprietary Hard Red Winter (HRW) wheat varieties or wheat inbred lines were used in this project at two locations. The plants were genotyped for the Rht1, Rht2, and Rht24 mutant alleles to determine which plants were GA3 sensitive or insensitive genotypes.
Commercially available GA3 was applied using a broadcast application to the wheat plants at various vegetative growth stages described by the Feekes Scale. GA3 was applied at different rates of active ingredient (ai)/acre to elucidate the growth response. Experimental treatments were: Untreated, 1 oz ai/acre applied at Feekes stage 6, 1 oz ai/acre applied sequentially at Feekes stage 6 and Feekes stage 8 (2 oz ai/acre total), and 1 oz ai/acre applied sequentially at Feekes stage 6, Feekes stage 8, and Feekes stage 10 (3 oz ai/acre total)

winter wheat genotypes = experiment: production studies: sodium chlorate desiccant sprayed to delay male flowering; assay type: in vivo
Description: A series of production studies were conducted to understand how to delay male flowering in wheat seed production. Several winter wheat genotypes were planted in a split plot design and sprayed with a commercially available sodium chlorate desiccant at the highest labeled rate at Feekes stages 7 and 9. In most crops, desiccants are typically used to artificially accelerate the drying down of plant tissues. Here, the strategy was to slow growth rates in the male wheat plants to delay heading and subsequent flowering. […] The desiccant caused a slight 0 to 2 inch (0 to 5 cm) reduction in plant height.

Structure (SMILES) | change in heading and flowering ([1]; GA insensitive genotypes) | effect on wheat plant height ([1]; GA sensitive genotypes vs same genotype not treated) | wheat yield vs untreated plants ([1]; GA sensitive genotypes, same GA3 treatment) | decrease of yield ([1]; GA sensitive male genotypes) | differences in plant height with GA3 treatments ([1]; plants with Rht1+Rht24 or Rht2+Rht24 mutant alleles (GA3 insensitive genotype combinations)) | inbred male yield (winter wheat genotypes; sprayed at Feekes stage 7 or 9 (both stages), FIG. 4) | inbred male yield, comparison of stages (winter wheat genotypes; sprayed at Feekes stage 9, FIG. 4)
C=C1C[C@]23C[C@@]1(O)CC[C@H]2[C@@]12C=C[C@H](O)[C@@](C)(C(=O)O1)[C@H]2[C@@H]3C(=O)O [GA3, gibberellin A3] | did not change | positive effect | lower wheat yield | 11% | did not show differences in plant height | – | –
[Na+].[O-][Cl+2]([O-])[O-] [sodium chlorate] | – | – | – | – | – | reduced | greatest reduction
